Reference: publication PMC6174881 (Journal of medicinal chemistry, 2018)
Read-outs that look alike come from different tables or passages of the source. Square brackets hold non-standard residues; d marks the D form. Peptide text beside a SMILES is read from it. hPhe = N[C@@H](CCc1ccccc1)C(=O)O; Nle = CCCC[C@H](N)C(=O)O; Dap = NC[C@H](N)C(=O)O

Assays:
[1] = target: T1, mMC1R (Mus musculus, UniProt Q01727); conditions: for mMC1R agonist activity in words: up to 100 μM
[2] = target: T1, mMC1R; assay: cell-based
[3] = target: T2, mMC4R (Mus musculus, UniProt P56450); conditions: depending on the cAMP assay utilized; cited from earlier work
[4] = target: mMC5R (Mus musculus, UniProt P41149); assay: AlphaScreen cAMP assay, agonist/inverse agonist activity at mMC5R; conditions: for mMC5R inverse agonist efficacy (−X%): relative to basal, apparent sigmoidal dose-response; for mMC5R activity in words: up to 100 μM
[5] = target: T3, mMC3R (Mus musculus, UniProt P33033)
[6] = target: T2, mMC4R; conditions: for fold increase in potency at the mMC4R compared to 1: calculated using Ki values from Schild analysis
[7] = target: T3, mMC3R; conditions: cited from earlier work
[8] = target: T2, mMC4R; conditions: cited from earlier work
[9] = target: T3, mMC3R; remark: listed apart in the source
[10] = target: T2, mMC4R
[11] = system: MC1R; conditions: read-out: MC1R agonist EC50; cited from earlier work
[12] = target: mouse melanocortin-1 receptor (mouse) (UniProt Q01727)
[13] = maximal stimulation relative to NDP-MSH, sigmoidal dose-response
[14] = calculated using Ki values from Schild analysis
[15] = β-galactosidase reporter gene assay
[16] = calculated using antagonist Ki values

T2 sequence (P56450 whole entry): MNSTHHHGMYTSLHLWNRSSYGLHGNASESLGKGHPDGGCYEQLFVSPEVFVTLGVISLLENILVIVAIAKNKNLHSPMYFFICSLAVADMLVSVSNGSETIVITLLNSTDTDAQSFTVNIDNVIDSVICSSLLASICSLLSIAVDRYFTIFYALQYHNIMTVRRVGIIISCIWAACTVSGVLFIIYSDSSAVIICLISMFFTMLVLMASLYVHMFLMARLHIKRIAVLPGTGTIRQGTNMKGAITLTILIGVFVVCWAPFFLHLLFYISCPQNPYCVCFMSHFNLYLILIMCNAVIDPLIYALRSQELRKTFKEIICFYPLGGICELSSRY
T1 sequence (Q01727 whole entry): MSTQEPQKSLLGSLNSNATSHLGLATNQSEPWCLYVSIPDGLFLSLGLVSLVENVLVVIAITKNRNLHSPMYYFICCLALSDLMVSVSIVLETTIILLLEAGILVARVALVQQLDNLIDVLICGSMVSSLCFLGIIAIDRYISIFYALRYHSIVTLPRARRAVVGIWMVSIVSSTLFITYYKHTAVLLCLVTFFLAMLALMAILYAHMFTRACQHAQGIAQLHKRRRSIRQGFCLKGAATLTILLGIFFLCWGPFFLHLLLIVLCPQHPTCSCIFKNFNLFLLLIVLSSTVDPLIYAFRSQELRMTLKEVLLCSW
T3 sequence (P33033 whole entry): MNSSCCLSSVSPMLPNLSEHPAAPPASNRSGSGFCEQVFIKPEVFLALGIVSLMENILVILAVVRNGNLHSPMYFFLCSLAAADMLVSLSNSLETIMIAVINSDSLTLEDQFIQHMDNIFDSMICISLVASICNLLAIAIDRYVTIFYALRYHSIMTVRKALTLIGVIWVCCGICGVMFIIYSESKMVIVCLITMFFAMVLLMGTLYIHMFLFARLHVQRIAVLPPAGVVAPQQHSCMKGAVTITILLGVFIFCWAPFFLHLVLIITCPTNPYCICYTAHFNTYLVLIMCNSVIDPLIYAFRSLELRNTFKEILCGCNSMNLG
Chain of mMC5R (P41149 whole entry): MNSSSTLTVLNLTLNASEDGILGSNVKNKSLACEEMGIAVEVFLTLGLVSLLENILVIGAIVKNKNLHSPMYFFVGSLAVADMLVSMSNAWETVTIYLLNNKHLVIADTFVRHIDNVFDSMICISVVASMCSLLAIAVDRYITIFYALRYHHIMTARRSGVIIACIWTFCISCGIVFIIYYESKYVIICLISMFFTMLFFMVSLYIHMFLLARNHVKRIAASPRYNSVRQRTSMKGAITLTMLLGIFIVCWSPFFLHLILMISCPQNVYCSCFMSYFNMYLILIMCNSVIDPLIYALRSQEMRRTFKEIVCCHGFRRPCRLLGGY
Chain of mouse melanocortin-1 receptor (mouse) (Q01727 whole entry): as the sequence (Q01727 whole entry) above

In the case of `C[C@@H]1NC(=O)[C@H](CC(N)=O)NC(=O)[C@H](Cc2ccccc2)NC(=O)[C@H](Cc2ccccc2)NC(=O)[C@H](CCCNC(=N)N)NC(=O)[C@@H]2CCCN2C(=O)[C@H]2CCCN2C(=O)[C@H](Cc2ccccc2)NC1=O` [Compound 1, c[Pro-Arg-Phe-Phe-Asn-Ala-Phe-DPro]], the “mMC1R partial agonist activity (X%), receptor stimulated to given percent” value [1, 13] is given as 80%, the EC50 [2] is given as 2.8 ± 0.6 µM and the “mMC4R pA2” value [3] is given as 7.7–8.1.
In the case of `CCCC[C@@H]1NC(=O)[C@H](C)NC(=O)[C@H](CC(N)=O)NC(=O)[C@H](Cc2ccccc2)NC(=O)[C@H](Cc2ccccc2)NC(=O)[C@H](CCCNC(=N)N)NC(=O)[C@@H]2CCCN2C(=O)[C@H]2CCCN2C1=O` [Compound 2, c[Pro-Arg-Phe-Phe-Asn-Ala-Nle-DPro]], the “mMC1R partial agonist activity (X%), receptor stimulated to given percent” value [1, 13] is reported as 50%, the EC50 [4] is reported as 0.01 ± 0.006 µM and the “mMC5R inverse agonist efficacy (−X%)” value [4] is reported as −20%. The “mMC5R activity in words” value [4] was “inverse agonist activity was observed”, the Kb [5] was 0.251 µM and the Kb [6] was 0.00126 µM. For the same compound, the “fold increase in potency at the mMC4R compared to 1” value [6] was ≤ 10 fold and the EC50 [2] was 1.7 ± 0.3 µM.
With `N=C(N)NCCC[C@@H]1NC(=O)[C@@H]2CCCN2C(=O)[C@H]2CCCN2C(=O)[C@H](Cc2ccccc2)NC(=O)[C@H](CO)NC(=O)[C@H](CC(N)=O)NC(=O)[C@H](Cc2ccccc2)NC(=O)[C@H](Cc2ccccc2)NC1=O` [Compound 3, c[Pro-Arg-Phe-Phe-Asn-Ser-Phe-DPro]] (cyclo(RFFNSF[dP]P)) the EC50 [4] was 0.006 ± 0.003 µM, the “mMC5R inverse agonist efficacy (−X%)” value [4] was −14% and the “mMC5R activity in words” value [4] was “inverse agonist activity was observed”. For the same compound, the Kb [5] was 0.794 µM, the Kb [6] was 0.00794 µM and the “fold increase in potency at the mMC4R compared to 1” value [6] was ≤ 10 fold. For the same compound, the EC50 [2] was 1.2 ± 0.3 µM.
In the case of `C[C@@H]1NC(=O)[C@H](CN)NC(=O)[C@H](Cc2ccccc2)NC(=O)[C@H](Cc2ccccc2)NC(=O)[C@H](CCCNC(=N)N)NC(=O)[C@@H]2CCCN2C(=O)[C@H]2CCCN2C(=O)[C@H](Cc2ccccc2)NC1=O` [Compound 5, c[Pro-Arg-Phe-Phe-Dap-Ala-Phe-DPro]], the “mMC1R partial agonist activity (X%), receptor stimulated to given percent” value [1, 13] is reported as 80%, the EC50 [4] is reported as > 100 µM and the Kb [5] is reported as 0.0631 µM. It also gave an EC50 [2] of 1.6 ± 0.4 µM.
For `C[C@@H]1NC(=O)[C@H](CCCNC(=N)N)NC(=O)[C@H](Cc2ccccc2)NC(=O)[C@H](Cc2ccccc2)NC(=O)[C@H](CCCNC(=N)N)NC(=O)[C@@H]2CCCN2C(=O)[C@H]2CCCN2C(=O)[C@H](Cc2ccccc2)NC1=O` [Compound 9, c[Pro-Arg-Phe-Phe-Arg-Ala-Phe-DPro]] (cyclo(RFFRAF[dP]P)), the “mMC1R partial agonist activity (X%), receptor stimulated to given percent” value [1] was 25%, the EC50 [4] was > 100 µM and the Kb [5] was 0.0398 µM. The “fold increase in potency at the mMC3R compared to 1” value [5, 14] was “greater than 10 fold”, the Kb [6] was 0.002 µM and the EC50 [2] was 0.6 ± 0.2 µM.
For `C[C@@H]1NC(=O)[C@H](CC(N)=O)NC(=O)[C@H](CCc2ccccc2)NC(=O)[C@H](Cc2ccccc2)NC(=O)[C@H](CCCNC(=N)N)NC(=O)[C@@H]2CCCN2C(=O)[C@H]2CCCN2C(=O)[C@H](Cc2ccccc2)NC1=O` [Compound 13, c[Pro-Arg-Phe-hPhe-Asn-Ala-Phe-DPro]], the “mMC3R antagonist activity in words” value [7, 15] is listed as “did not possess antagonist activity”, the EC50 [4] is listed as > 100 µM and the Kb [5] is listed as 2.51 µM. The “Antagonist mMC3R pA2” value ([5]; Schild analysis with agonist NDP-MSH, pA2 = −log[Ki]) was 5.6, the “fold reduced potency at the mMC3R compared to 1” value [5, 14] was 5 fold and the Kb [6] was 0.00501 µM. The “mMC4R potency compared to lead peptide 1 in words” value [6] was “equipotent to the lead peptide”, the “selectivity for the mMC4R over the mMC3R” value [6, 16] was “approximately 500 fold” and the “fold less potent than 1 at the mMC4R” value [8, 15] was 5 fold. For the same compound, the “Antagonist mMC3R pA2” value [9] was 5.6±0.2.
In the case of `CCCC[C@@H]1NC(=O)[C@H](C)NC(=O)[C@H](CN)NC(=O)[C@H](CCc2ccccc2)NC(=O)[C@H](Cc2ccccc2)NC(=O)[C@H](CCCNC(=N)N)NC(=O)[C@@H]2CCCN2C(=O)[C@H]2CCCN2C1=O` [Compound 18, c[Pro-Arg-Phe-hPhe-Dap-Ala-Nle-DPro]] (cyclo(RF[hPhe][Dap]A[Nle][dP]P)), the “mMC1R agonist activity in words” value [1] is reported as “did not possess agonist activity”.
With `C[C@@H]1NC(=O)[C@H](CCCNC(=N)N)NC(=O)[C@H](CCc2ccccc2)NC(=O)[C@H](Cc2ccccc2)NC(=O)[C@H](CCCNC(=N)N)NC(=O)[C@@H]2CCCN2C(=O)[C@H]2CCCN2C(=O)[C@H](Cc2ccccc2)NC1=O` [Compound 21, c[Pro-Arg-Phe-hPhe-Arg-Ala-Phe-DPro]] (cyclo(RF[hPhe]RAF[dP]P)) the “mMC5R activity in words” value [4] was “did not result in mMC5R stimulation”, the “fold less potent than AGRP at the mMC3R” value [5] was 5 fold and the “mMC4R potency compared to AGRP in words” value [6] was “equipotent to AGRP”. For the same compound, the “fold increase in potency at the mMC4R compared to 1” value [6] was 6 fold, the “fold decrease in mMC4R selectivity compared to 1” value [6, 16] was 7 fold and the “Antagonist mMC4R pA2” value [10] was 8.9.
In the case of `CCCC[C@@H]1NC(=O)[C@H](C)NC(=O)[C@H](CCCNC(=N)N)NC(=O)[C@H](CCc2ccccc2)NC(=O)[C@H](Cc2ccccc2)NC(=O)[C@H](CCCNC(=N)N)NC(=O)[C@@H]2CCCN2C(=O)[C@H]2CCCN2C1=O` [Compound 22, c[Pro-Arg-Phe-hPhe-Arg-Ala-Nle-DPro]] (cyclo(RF[hPhe]RA[Nle][dP]P)), the “mMC1R agonist activity in words” value [1] is reported as “did not possess agonist activity” and the “fold increase in potency at the mMC3R compared to 1” value [5, 14] is reported as “greater than 10 fold”.
In the case of `CCCC[C@@H]1NC(=O)[C@H](CO)NC(=O)[C@H](CCCNC(=N)N)NC(=O)[C@H](CCc2ccccc2)NC(=O)[C@H](Cc2ccccc2)NC(=O)[C@H](CCCNC(=N)N)NC(=O)[C@@H]2CCCN2C(=O)[C@H]2CCCN2C1=O` [Compound 24, c[Pro-Arg-Phe-hPhe-Arg-Ser-Nle-DPro]] (cyclo(RF[hPhe]RS[Nle][dP]P)), the “mMC1R partial agonist activity (X%), receptor stimulated to given percent” value [1] is reported as 25% and the “fold increase in potency at the mMC3R compared to 1” value [5, 14] is reported as “greater than 10 fold”.
For “Tyr-c[Cys-Arg-Phe-Phe-Asn-Ala-Phe-Cys]-Tyr [hAGRP(109–118), reference compound]”, the EC50 [11] is given as 3 µM, the “mMC3R activity in words” value ([7]; β-galactosidase reporter gene bioassay, up to 10 μM) is given as “No activity (Agonist or Antagonist)” and the “Antagonist mMC4R pA2” value ([8]; β-galactosidase reporter gene bioassay) is given as 6.8±0.4.
With cyclo(PRF[hPhe]RS[Nle][dP]) the agonist EC50, cAMP (AlphaScreen), HEK293 cells stably expressing mMC1R [12] was 0.4 µM.
